# Reference: patent publication US8501781B2 (priority 2009, dated 2013)
# Marks after values point to notes of the source that are not given here.
# Experiment: logP by HPLC (EEC Directive 79/831 Annex V.A8)
# Type: physicochemical
# Settings: for chromatographic logP: pH 2.7, given in the preparation examples, read-out: log P (pH 2.7)
# [1] = [b] LC-MS, acidic range, pH 2.7, 0.1% aqueous formic acid and acetonitrile
# [2] = [c] LC-MS, neutral range, pH 7.8, 0.001 molar aqueous ammonium bicarbonate and acetonitrile
SMILES,logP [1],also measured
Cc1ccc(C)c(NC(=O)N2CCC(c3nc(C(=O)Oc4c(C)cccc4Br)cs3)CC2)c1 [Example 141],3.82^[b],–
COc1cccc(Br)c1OC(=O)c1csc(C2CCN(C(=O)Nc3cc(C)ccc3C)CC2)n1 [Example 142],3.56^[b],–
Cc1ccc(C)c(NC(=O)N2CCC(c3nc(C(=O)Oc4c(C)cccc4Cl)cs3)CC2)c1 [Example 143],3.76^[b],–
Cc1ccc(C)c(NC(=O)N2CCC(c3nc(C(=O)Oc4c(Br)cccc4Br)cs3)CC2)c1 [Example 144],3.93^[b],–
COc1cccc(F)c1OC(=O)c1csc(C2CCN(C(=O)Nc3cc(C)ccc3C)CC2)n1 [Example 145],3.28^[b],–
Cc1ccc(C)c(NC(=O)N2CCC(c3nc(C(=O)Oc4ccccc4Br)cs3)CC2)c1 [Example 146],3.58^[b],–
Cc1ccc(C)c(NC(=O)N2CCC(c3nc(C(=O)Oc4ccccc4F)cs3)CC2)c1 [Example 147],3.27^[b],–
Cc1ccc(C)c(NC(=O)N2CCC(c3nc(C(=O)Oc4ccccc4Cl)cs3)CC2)c1 [Example 148],3.51^[b],–
Cc1ccc(C)c(NC(=O)N2CCC(c3nc(C(=O)Oc4c(F)cccc4Cl)cs3)CC2)c1 [Example 149],3.62^[b],–
Cc1ccc(C)c(NC(=O)N2CCC(c3nc(C(=O)Oc4c(F)cccc4F)cs3)CC2)c1 [Example 150],3.39^[b],–
Cc1ccc(C)c(NC(=O)N2CCC(c3nc(C(=O)Oc4c(Cl)cccc4Cl)cs3)CC2)c1 [Example 151],3.82^[b],–
Cc1ccc(C)c(NC(=O)N2CCC(c3nc(C(=O)Oc4c(F)cccc4Br)cs3)CC2)c1 [Example 152],3.86^[b],–
Cc1ccc(C)c(NC(=O)N2CCC(c3nc(C(=O)OC(C)c4ccccc4F)cs3)CC2)c1 (centres unmarked) [Example 153],3.71^[b],–
Cc1ccc(C)c(NC(=O)N2CCC(c3nc(C(=O)Oc4ccccc4I)cs3)CC2)c1 [Example 154],3.69^[b],–
Cc1ccc(C)c(NC(=O)N2CCC(c3nc(C(=O)OCc4c(F)cccc4Br)cs3)CC2)c1 [Example 155],3.79^[b],–
Cc1ccc(C)c(NC(=O)N2CCC(c3nc(C(=O)OC(C)c4c(Cl)cccc4Cl)cs3)CC2)c1 (centres unmarked) [Example 156],4.35^[b],–
Cc1ccc(C)c(NC(=O)N2CCC(c3nc(C(=O)OCCc4c(Cl)cccc4Cl)cs3)CC2)c1 [Example 157],4.29^[b],–
Cc1ccc(C)c(NC(=S)N2CCC(c3nc(C(=O)OC4CCCCC4c4ccccc4)cs3)CC2)c1 (centres unmarked) [Example 158],4.73^[b],–
Cc1ccc(Cl)cc1NC(=S)N1CCC(c2nc(C(=O)OC3CCCCC3c3ccccc3)cs2)CC1 (centres unmarked) [Example 159],4.83^[b],–
Cc1ccc(C)c(NC(=O)N2CCC(c3nc(C(=O)OC4CCCCC4c4ccc(F)c(F)c4)cs3)CC2)c1 (centres unmarked) [Example 160],4.52^[b],–
Cc1ccc(Cl)cc1NC(=O)N1CCC(c2nc(C(=O)OCc3c(F)cccc3Cl)cs2)CC1 [Example 161],3.89^[b],–

SMILES,logP [1],also measured
COc1ccc(C)cc1NC(=O)N1CCC(c2nc(C(=O)OCc3c(F)cccc3Cl)cs2)CC1 [Example 162],3.92^[b],–
Cc1ccc(Cl)cc1NC(=O)N1CCC(c2nc(C(=O)OCc3c(F)cccc3F)cs2)CC1 [Example 163],3.62^[b],–
COc1ccc(C)cc1NC(=O)N1CCC(c2nc(C(=O)OCc3c(F)cccc3F)cs2)CC1 [Example 164],3.66^[b],–
Cc1cc(C(F)(F)F)nn1CC(=O)N1CCC(F)(c2nc(C(=O)OCc3c(F)cccc3F)cs2)CC1 [Example 165],3.65,logP [2]: 3.67
Cc1ccc(Cl)cc1NC(=O)N1CCC(F)(c2nc(C(=O)OCc3c(F)cccc3F)cs2)CC1 [Example 166],3.87,logP [2]: 3.86
Cc1ccc(Cl)cc1NC(=O)N1CCC(F)(c2nc(C(=O)OC3CCCCC3)cs2)CC1 [Example 167],4.33,logP [2]: 4.32
O=C(OCc1c(F)cccc1F)c1csc(C2(F)CCN(C(=O)Cn3nc(C(F)F)cc3C(F)F)CC2)n1 [Example 168],3.53,logP [2]: 3.56
COc1ccc(C)cc1NC(=O)N1CCC(F)(c2nc(C(=O)OC3CCCCC3)cs2)CC1 [Example 169],4.4,logP [2]: 4.42
Cc1cc(C(F)(F)F)nn1CC(=O)N1CCC(F)(c2nc(C(=O)OC3CCCCC3)cs2)CC1 [Example 170],4.07,logP [2]: 4.09
Cc1ccc(C)c(NC(=O)N2CCC(F)(c3nc(C(=O)OCc4c(F)cccc4F)cs3)CC2)c1 [Example 171],3.69,logP [2]: 3.71
Cc1ccc(C)c(NC(=O)N2CCC(F)(c3nc(C(=O)OC4CCCCC4)cs3)CC2)c1 [Example 172],4.15^[c]; 4.15^[b],logP [2]: 4.15^[c]; 4.15^[b]
COc1ccc(C)cc1NC(=O)N1CCC(F)(c2nc(C(=O)OCc3c(F)cccc3F)cs2)CC1 [Example 173],3.80,logP [2]: 3.92
COCCOCC(=O)N1CCC(c2nc(C(=O)OC3CCCCC3)cs2)CC1 [Example 174],–,"logP ([a] acidic range, pH 2.3, 0.1% aqueous phosphoric acid and acetonitrile): 2.37^[a]"
O=C(OCc1c(F)cccc1F)c1cnc(C2CCN(C(=O)Cn3nc(C(F)F)cc3C(F)F)CC2)s1 [Example 175],3.45^[b],–
O=C(Oc1c(F)cccc1Cl)c1cnc(C2CCN(C(=O)Cn3nc(C(F)F)cc3C(F)F)CC2)s1 [Example 176],3.67^[b],–
Cc1cccc(COC(=O)c2cnc(C3CCN(C(=O)Cn4nc(C(F)F)cc4C(F)F)CC3)s2)c1C [Example 177],4.00^[b],–
O=C(OC1CCCCC1)c1cnc(C2CCN(C(=O)Cn3nc(C(F)F)cc3C(F)F)CC2)s1 [Example 178],3.97^[b],–
"O=C(OC1CCCCC1)c1csc(C2CCNCC2)n1 [VII-1, 4-{4-[(Cyclohexyloxy)carbonyl]-1,3-thiazol-2-yl}piperidinium chloride]",–,chromatographic logP: 1.25
"CC(C)(C)OC(=O)N1CCC(c2nc(C(=O)O)cs2)CC1 [XXXI-1, 2-[1-(tert-Butoxycarbonyl)piperidin-4-yl]-1,3-thiazole-4-carboxylic acid]",–,chromatographic logP: 2.04
"CC(C)(C)OC(=O)N1CCC(c2nc(C(=O)OC3CCCCC3)cs2)CC1 [XXXIII-1, tert-Butyl 4-{4-[(cyclohexyloxy)carbonyl]-1,3-thiazol-2-yl}piperidine-1-carboxylate]",–,chromatographic logP: 4.62
